In paper PMC10065799, “High-throughput profiling of sequence recognition by tyrosine kinases and SH2 domains using bacterial peptide display” (eLife, 2023):

Experiments:
Fer kinase domain = test: pTyr-Var library bacterial peptide display kinase screen (enrichment scores); format: biochemical, mouse; conditions: sheet "Fer";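 further: log2 fold change in enrichment of variant over reference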
EPHB1 kinase domain = test: as above; format: biochemical, human; conditions: for Screen (variant relative to reference peptide, measured in the pTyr-Var library screen): sheet "EPHB1", variant seq vs reference seq, bacterial peptide display enrichment; for Screen: sheet EPHB1, effect of the variant peptide relative to its reference peptide in the pTyr-Var library screen (enrichment scores)
c-Src kinase domain [1] = target: T1, c-Src kinase domain (Homo sapiens, UniProt P12931); test: as above; format: biochemical; conditions: sheet "Src"
EPHB2 kinase domain = test: as above; format: biochemical, human; conditions: sheet EPHB2;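 further: log2 fold change in enrichment of variant over reference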
c-Abl kinase domain = target: T2, c-Abl kinase domain (Mus musculus, UniProt P00520); test: as above; format: biochemical;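 further: log2 fold change in enrichment of variant over reference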
T2 sequence (P00520 242-493 limits assumed): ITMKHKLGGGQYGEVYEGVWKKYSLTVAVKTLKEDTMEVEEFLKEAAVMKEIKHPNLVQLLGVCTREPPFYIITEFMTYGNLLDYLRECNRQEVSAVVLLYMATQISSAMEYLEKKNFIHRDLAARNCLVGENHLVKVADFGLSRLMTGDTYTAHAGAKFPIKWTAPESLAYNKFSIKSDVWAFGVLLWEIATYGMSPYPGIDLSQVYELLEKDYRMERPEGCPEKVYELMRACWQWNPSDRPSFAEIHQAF

c-Src kinase domain [2] = target: T1, c-Src kinase domain; test: ADP-Quest continuous fluorimetric kinase assay (Michaelis-Menten parameters and initial rates); format: biochemical; conditions: ADP-Quest assay, c-Src kinase domain 10 nM, 100 μM ATP, 37 °C; three to five replicates; error = standard error of global Michaelis-Menten fit
Source text: A fluorescence-based assay from Eurofins (ADP Quest) was used to measure the Michaelis-Menten kinetic parameters for phosphorylation of the consensus peptides by purified tyrosine kinase domains. In this assay, ADP production as a result of kinase activity is coupled to the production of resorufin, a fluorophore that emits signal at 590 nm. For all experiments, the assay reactions were set up as described in the provided assay kit protocol, in a 384 well plate format. The peptide solutions were serially diluted in 100 mM Tris, pH 8.0, and the kinases were diluted to 50 nM in buffer (10 mM HEPES, 100 mM NaCl, 1 mM TCEP, 5 mM MgCl2, 10% (v/v) glycerol). The final reaction mixtures contained 10 nM of kinase with 100 μM of ATP. Reactions were initiated with the addition of 1 mM ATP into a 50 μL reaction mixture for a final concentration of 100 μM ATP. Phosphorylation reaction progress was monitored by measuring fluorescence at excitation 530 nm and emission 590 nm every 2 min at 37 °C on a plate reader (BioTek Synergy Neo 2). The fluorescence units (RFU) were converted to μM ADP by comparison to a standard curve, and the initial rates were extracted from the linear regime of the reaction progress curves. Initial rates were also measured for samples containing each kinase but lacking a peptide substrate, to account for background ATP hydrolysis. This background rate was subtracted from the rates measured in the presence of peptide. The subtracted rates were plotted as a function of substrate concentration and fit to the Michaelis-Menten equation to extract kcat and KM values.

c-Src kinase domain [3] = target: T1, c-Src kinase domain; test: RP-HPLC assay to measure peptide phosphorylation kinetics; format: biochemical; conditions: purified peptide substrate
[4] = variant peptide relative to its reference peptide, pTyr-Var library screen enrichment
[5] = variant peptide versus its reference peptide in the pTyr-Var library screen
[6] = effect of the variant relative to its reference peptide in the pTyr-Var library screen
[7] = sheet "Abl", effect of variant peptide relative to its reference peptide in pTyr-Var library screen (enrichment)
[8] = effect of variant peptide relative to its reference peptide in the pTyr-Var library screen (enrichment scores)
[9] = value of the variant peptide against its reference peptide in the pTyr-Var library screen with Fer
[10] = effect of the variant peptide relative to its reference peptide in the pTyr-Var library screen
[11] = fig5-data2, sheet "Abl", Screen for the variant/reference peptide pair, pTyr-Var library

| Substance | Screen (c-Src kinase domain [1]; [5]) | Screen (EPHB1 kinase domain) | Screen (EPHB2 kinase domain; [8]) | Screen (Fer kinase domain; [9]) | Screen (c-Src kinase domain [1]; [10]) | also measured |
| --- | --- | --- | --- | --- | --- | --- |
| ACCLLYCGDVV [TUBA4A_Y319_R320C] | -0.4326 | – | – | – | – | Screen (Fer kinase domain; [4]): 2.253; Screen (variant relative to reference peptide, measured in the pTyr-Var library screen) (EPHB1 kinase domain): 4.284; Screen (EPHB2 kinase domain; [6]): 3.709; Screen (c-Abl kinase domain; [7]): -0.5266 |
| AQQPIYIRVEG [NLRP7_Y318_V319I] | -2.214 | -2.185 | -2.079 | – | – | – |
| Ac-GCDECIYGMFPFRRRG-NH2 [Src Consensus (P-5C, D+1 G), Src Consensus-related peptide with +1 Gly] | – | – | – | – | – | Km (c-Src kinase domain [2]): 97 ± 10 µM; kcat (c-Src kinase domain [2]): 4.4±0.2 s^–1 |
| Ac-IGEGTYRTVFK-NH2 [CDK5-Y15-G16R] | – | – | – | – | – | Phosphorylation Rate (c-Src kinase domain [3]): 0.219 s⁻¹ |
| Ac-SGDITYGQFAQ-NH2 [PLCG1_Y210] | – | – | – | – | – | Phosphorylation Rate (c-Src kinase domain [3]): 2.121 s⁻¹ |
| CGPLLYGLVHQ [PRKCG_Y122_S119P] | -0.4426 | 0.3123 | -0.1456 | -0.6662 | – | – |
| DAKTIYDFTDT [PDK1_Y136_A134T] | -0.8148 | – | -1.665 | -1.776 | – | – |
| FQNSLYAPDFS [FAM92A_Y226_R222Q_YF] | – | 0.991 | 1.651 | 1.873 | 0.8192 | – |
| GQRDLYSGLNE [CD3E_Y199_Q204E] | – | -0.9821 | -0.7383 | -1.295 | -0.3824 | – |
| HNLDFYKMTTN [FGFR3_Y648_K650M_YF] | – | -1.054 | 0.0281 | -0.9943 | -2.668 | – |
| IEEGTYGVAFR [CDK11B_Y449_V452A_YF] | – | -1.792 | -1.778 | -0.4849 | -0.1184 | – |
| ITNLLYHLVGW [GBA_Y412_V414L] | – | -1.095 | -1.708 | 0.1481 | -0.6312 | – |
| KLPFLYDDPFS [GPX2_Y127_P126L_YF] | – | 2.862 | 2.625 | 1.127 | – | – |
| KLVQLYDVCTK [BTK_Y461_G462D] | – | 3.126 | 2.907 | 2.534 | 0.2967 | – |
| KVASVYEALGF [NT5C_Y65_P68L] | 0.2966 | 1.12 | -0.4355 | -0.5868 | – | – |
| LDTFIYDAAVL [GRIN2A_Y730_A727T] | – | -0.673 | -0.5027 | -0.1876 | 0.2901 | – |
| LENSTYQFIHV [CRB1_Y760_R764H_YF] | – | 0.7891 | 0.62 | 0.6151 | 0.1019 | Screen (c-Abl kinase domain; [11]): -1.13 |
| LFEDCYLLGTS [ASS1_Y87_R86C_YF] | – | -1.767 | -0.8272 | – | 2.612 | – |

| Substance | Screen (c-Src kinase domain [1]; [5]) | Screen (EPHB1 kinase domain) | Screen (EPHB2 kinase domain; [8]) | Screen (Fer kinase domain; [9]) | Screen (c-Src kinase domain [1]; [10]) | also measured |
| --- | --- | --- | --- | --- | --- | --- |
| LLIMEYAKFGS [RET_Y806_V804M_YF] | 0.7851 | -1.009 | -0.7138 | – | – | – |
| LNEAVYTKMMT [G6PD_Y401_P396L] | – | 1.441 | 2.035 | 1.268 | 0.3249 | – |
| MVIPNYSSWTE [UROC1_Y185_R188W] | – | – | – | – | – | Screen (Fer kinase domain; [4]): 2.023; Screen (variant relative to reference peptide, measured in the pTyr-Var library screen) (EPHB1 kinase domain): 4.533; Screen (EPHB2 kinase domain; [6]): 4.793 |
| NTFENYWPFFQ [GATM_Y103_K102N_YF] | – | 4.344 | 3.46 | – | 2.256 | – |
| PFGQWYESHFA [RPS8_Y113_R110G_YF] | 2.137 | 2.825 | 2.604 | – | – | Screen (Fer kinase domain; [4]): 2.253 |
| PFRKLYESVKK [MKI67_Y241_W238R] | – | -3.688 | -2.876 | -1.869 | -1.776 | – |
| PLDNLYAEPAV [PRPS1_Y146_V142L] | 0.376 | 0.8585 | 0.4426 | 0.1056 | – | – |
| PMFHSYVSLPF [PLXNA2_Y293_K289M] | – | 0.7871 | 0.8579 | – | – | Screen (c-Abl kinase domain; [11]): 0.1709 |
| QKTGDYFDLFG [PTPN11_Y62_N58K_YF] | -1.277 | -1.083 | -1.66 | – | – | – |
| QLQQAYQEAFE [YWHAZ_Y149_S145L] | – | – | – | – | – | Screen (Fer kinase domain; [4]): 1.389; Screen (EPHB2 kinase domain; [6]): 1.539; Screen (c-Abl kinase domain; [7]): 2.922 |
| QSSALYEDHFL [ASS1_Y83_R86H_YF] | – | 0.2982 | 1.176 | 0.8014 | 0.1278 | – |
| RGDCTYAPLLG [AR_Y269_M268T] | – | 0.2378 | 0.1305 | -1.638 | 0.1809 | – |
| RGKLFYQEVPA [METTL11B_Y76_A72G] | – | -1.027 | -1.191 | -1.394 | – | – |
| RPPELYALMSD [ZAP70_Y569_C564R] | 1.184 | – | – | – | – | Screen (variant relative to reference peptide, measured in the pTyr-Var library screen) (EPHB1 kinase domain): 2.108; Screen (EPHB2 kinase domain; [6]): 1.779; Screen (c-Abl kinase domain; [7]): 3.577 |
| SPFMLYQFLKQ [RPAP3_Y567_D564Y_YF] | -1.029 | 2.24 | 1.841 | – | – | Screen (Fer kinase domain; [4]): -1.212 |
| SSPQLYLVPFL [TAF4_Y652_P651L] | – | – | 2.197 | – | – | Screen (variant relative to reference peptide, measured in the pTyr-Var library screen) (EPHB1 kinase domain): 3.351 |
| VGTKWYMAPEV [ACVRL1_Y375_R374W] | – | 2.34 | 2.182 | – | – | – |
